Assay results taken from US9428456B2, “1-[m-carboxamido(hetero)aryl-methyl]-heterocyclyl-carboxamide derivatives” (Actelion Pharmaceuticals Ltd., priority 2012, dated 2016).

Biological target: CXCR7 (Homo sapiens (Human), UniProt P25106)
Test: PathHunter CHO-K1 CXCR7 b-arrestin assay (agonistic activity)
Assay type: cell-based
Conditions: PathHunter CHO-K1 CXCR7 b-arrestin cell line
Description: The CXCl12 receptor and CXCR7 agonistic activities of the compounds of formula (I) are determined in accordance with the following experimental method.
The assay is using the PathHunter™ CHO-K1 CXCR7 b-arrestin cell line from DiscoverX. The system is based on the Enzyme Fragment Complementation Technology. Two complementing fragments of the b-galactosidase enzyme are expressed within stably transfected cells. The larger portion of b-gal, termed EA for Enzyme Acceptor, is fused to the C-terminus of b-arrestin 2. The smaller fragment, termed ProLink™ tag, is fused to CXCR7 at the C-terminus. Upon activation, b-arrestin is recruited which forces the interaction of ProLink and EA, allowing complementation of the two fragments of b-gal and the formation of a functional enzyme which is capable of hydrolysing the substrate and generating a chemiluminescent signal.
CHO-K1 CXCR7 b-arrestin cells are detached from culture dishes with a cell dissociation buffer (Invitrogen, #13151-014) and collected in growing medium (F12 HAMS 90% (v/v)/FCS 10% (v/v), Penicilin/streptomycin 1% (v/v)). 5000 cells per well (in 20 μl) are seeded in a 384 well plate (white-walled, clear bottom; BD Falcon #353274). The plate is incubated at 37° C./5% CO2 for 24 hours. Medium is then replaced by 20 μl OPTIMEM (Invitrogen #31985) for 3 to 4 hours. Test compounds are dissolved at 10 mM in DMSO and serially diluted in DMSO to 200× of the final concentration for dose response curves. Compounds are then diluted 1:33.3 in HBSS1×. 5 μl/well of HBSS1×/20 mM HEPES/0.2% BSA are added to the assay plate followed by addition of 5 μl/well of diluted compounds. CXCL12 (Peprotech #300-28A) may be used as a reference agonist. The plate is incubated for 90 minutes at 37° C. 12 μl of detection reagent (Path Hunter Detection Kit, DiscoveRx, #93-0001) is transferred to the assay plate and to the plate is incubated for 1 hour at room temperature. Luminescent signal is read in a microplate reader (FLUOstar Optima, bmg). The calculated EC50 values may fluctuate depending on the daily cellular assay performance. Fluctuations of this kind are known to those skilled in the art. Average EC50 values from several measurements are given as geometric mean values.

CXCR7, sequence (P25106 whole entry): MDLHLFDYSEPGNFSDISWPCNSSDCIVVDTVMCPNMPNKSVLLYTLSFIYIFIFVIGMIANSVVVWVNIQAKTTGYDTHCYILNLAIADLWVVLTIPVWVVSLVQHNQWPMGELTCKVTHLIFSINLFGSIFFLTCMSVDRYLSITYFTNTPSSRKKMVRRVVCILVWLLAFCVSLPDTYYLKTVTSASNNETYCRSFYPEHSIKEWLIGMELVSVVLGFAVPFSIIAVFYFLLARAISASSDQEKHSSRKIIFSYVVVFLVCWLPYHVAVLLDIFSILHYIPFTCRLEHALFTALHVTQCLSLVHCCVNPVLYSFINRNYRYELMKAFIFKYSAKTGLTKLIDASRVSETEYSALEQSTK
CXCR7, sequence (P32121 whole entry partner): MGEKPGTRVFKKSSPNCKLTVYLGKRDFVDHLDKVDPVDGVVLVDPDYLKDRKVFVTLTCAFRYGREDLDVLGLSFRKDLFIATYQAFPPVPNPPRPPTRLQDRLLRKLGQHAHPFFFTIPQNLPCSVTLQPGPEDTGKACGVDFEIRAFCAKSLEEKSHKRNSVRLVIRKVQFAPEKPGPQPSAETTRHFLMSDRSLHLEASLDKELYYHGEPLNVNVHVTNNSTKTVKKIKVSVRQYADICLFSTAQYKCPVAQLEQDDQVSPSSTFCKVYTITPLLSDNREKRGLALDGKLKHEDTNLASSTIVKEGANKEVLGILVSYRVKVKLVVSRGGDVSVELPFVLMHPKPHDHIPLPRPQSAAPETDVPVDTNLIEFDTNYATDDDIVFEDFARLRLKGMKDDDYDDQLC

| Molecule | EC50 |
| --- | --- |
| 1-[3-(4-Chloro-benzoylamino)-benzyl]-piperidine-4-carboxylic acid (1-cyano-cyclopropyl)-amide [Example 2.036] | 15 nM |
| 1-[3-(4-Chloro-benzoylamino)-benzyl]-piperidine-4-carboxylic acid (tetrahydro-pyran-4-yl)-amide [Example 2.013] | 13 nM |
| 6-Trifluoromethyl-pyridine-2-carboxylic acid [3-(4-pentylcarbamoyl-piperidin-1-ylmethyl)-phenyl]-amide [Example 2.080] | 15 nM |
| O=C(NC1CCCCC1)C1CCN(Cc2cccc(NC(=O)C3CC3c3ccccc3)c2)CC1 (racemic) [Example 1.029] | 5 nM |
| CC(C)C(C(=O)Nc1cccc(CN2CCC(C(=O)NC3CCCCC3)CC2)c1)c1ccccc1 (racemic) [Example 1.036] | 35 nM |
| CC(C(=O)Nc1cccc(CN2CCC(C(=O)NC(C)(C)C)CC2)c1)c1ccccc1 (racemic) [Example 1.079] | 3 nM |
| CC(c1cccc(NC(=O)c2ccc(Cl)cn2)c1)N1CCC(C(=O)NC2CCCCC2)CC1 (racemic) [Example 1.168] | 2 nM |
| CC(c1cccc(NC(=O)c2ccccn2)c1)N1CCC(C(=O)NC2CCCCC2)CC1 (racemic) [Example 1.169] | 12 nM |
| CC(c1cccc(NC(=O)c2cnccn2)c1)N1CCC(C(=O)NC2CCCCC2)CC1 (racemic) [Example 1.170] | 18 nM |
| CC(c1cccc(NC(=O)c2cccnc2)c1)N1CCC(C(=O)NC2CCCCC2)CC1 (racemic) [Example 1.171] | 150 nM |
| Cc1cncc(C(=O)Nc2cccc(C(C)N3CCC(C(=O)NC4CCCCC4)CC3)c2)c1 (racemic) [Example 1.172] | 28 nM |
| CC(c1cccc(NC(=O)Cc2cccc(C(F)(F)F)c2)c1)N1CCC(C(=O)NC2CCCCC2)CC1 (racemic) [Example 1.173] | 26 nM |
| CC(c1cccc(NC(=O)c2ccncc2Cl)c1)N1CCC(C(=O)NC2CCCCC2)CC1 (racemic) [Example 1.174] | 559 nM |
| COc1ccc(OCC(=O)Nc2cccc(C(C)N3CCC(C(=O)NC4CCCCC4)CC3)c2)cc1 (racemic) [Example 1.175] | 181 nM |
| CC(c1cccc(NC(=O)c2ccncc2)c1)N1CCC(C(=O)NC2CCCCC2)CC1 (racemic) [Example 1.176] | 173 nM |
| CC(c1cccc(NC(=O)c2ccc(C(F)(F)F)cc2)c1)N1CCC(C(=O)NC2CCCCC2)CC1 (racemic) [Example 1.177] | 37 nM |
| CC(c1cccc(NC(=O)c2ccc(C#N)cc2)c1)N1CCC(C(=O)NC2CCCCC2)CC1 (racemic) [Example 1.178] | 64 nM |
| CC(c1cccc(NC(=O)c2cccc(C#N)c2)c1)N1CCC(C(=O)NC2CCCCC2)CC1 (racemic) [Example 1.179] | 78 nM |
| CC(c1cccc(NC(=O)c2cc(Cl)ccn2)c1)N1CCC(C(=O)NC2CCCCC2)CC1 (racemic) [Example 1.180] | 51 nM |
| Cc1ccc(C(=O)Nc2cccc(C(C)N3CCC(C(=O)NC4CCCCC4)CC3)c2)cn1 (racemic) [Example 1.181] | 148 nM |
| Cc1cccc(C(=O)Nc2cccc(C(C)N3CCC(C(=O)NC4CCCCC4)CC3)c2)n1 (racemic) [Example 1.182] | 7 nM |
| CC(c1cccc(NC(=O)c2ccc(C(F)(F)F)nc2)c1)N1CCC(C(=O)NC2CCCCC2)CC1 (racemic) [Example 1.183] | 98 nM |
| Cc1cc(C(=O)Nc2cccc(C(C)N3CCC(C(=O)NC4CCCCC4)CC3)c2)ccn1 (racemic) [Example 1.184] | 33 nM |
| Cc1cnc(C(=O)Nc2cccc(C(C)N3CCC(C(=O)NC4CCCCC4)CC3)c2)cn1 (racemic) [Example 1.185] | 15 nM |
| Cc1cc(C(=O)Nc2cccc(C(C)N3CCC(C(=O)NC4CCCCC4)CC3)c2)c2cnn(C(C)C)c2n1 (racemic) [Example 1.186] | 86 nM |

| Molecule | EC50 |
| --- | --- |
| CC(c1cccc(NC(=O)c2cccc(C(F)(F)F)n2)c1)N1CCC(C(=O)NC2CCCCC2)CC1 (racemic) [Example 1.187] | 7 nM |
| CC(c1cccc(NC(=O)c2ccc(N3CCCC3)cn2)c1)N1CCC(C(=O)NC2CCCCC2)CC1 (racemic) [Example 1.188] | 215 nM |
| CC(C)Cc1cc(C(=O)Nc2cccc(C(C)N3CCC(C(=O)NC4CCCCC4)CC3)c2)n(C)n1 (racemic) [Example 1.189] | 15 nM |
| CC(c1cccc(NC(=O)c2cnc3[nH]ccc3c2)c1)N1CCC(C(=O)NC2CCCCC2)CC1 (racemic) [Example 1.190] | 134 nM |
| Cc1ccnc(C(=O)Nc2cccc(C(C)N3CCC(C(=O)NC4CCCCC4)CC3)c2)c1 (racemic) [Example 1.191] | 64 nM |
| Cc1cc(C)nc(C(=O)Nc2cccc(C(C)N3CCC(C(=O)NC4CCCCC4)CC3)c2)c1 (racemic) [Example 1.192] | 102 nM |
| CC(c1cccc(NC(=O)c2ccncn2)c1)N1CCC(C(=O)NC2CCCCC2)CC1 (racemic) [Example 1.193] | 23 nM |
| CC(c1cccc(NC(=O)c2cnc(N3CCCC3)s2)c1)N1CCC(C(=O)NC2CCCCC2)CC1 (racemic) [Example 1.194] | 303 nM |
| CC(c1cccc(NC(=O)c2ncccn2)c1)N1CCC(C(=O)NC2CCCCC2)CC1 (racemic) [Example 1.195] | 176 nM |
| CCN(CC)c1ccc(C(=O)Nc2cccc(C(C)N3CCC(C(=O)NC4CCCCC4)CC3)c2)cn1 (racemic) [Example 1.196] | 491 nM |
| Cc1cc(C(=O)Nc2cccc(C(C)N3CCC(C(=O)NC4CCCCC4)CC3)c2)ncn1 (racemic) [Example 1.198] | 92 nM |
| CC(C)(C)NC(=O)C1CCN(Cc2cccc(NC(=O)C3CCOC3)c2)CC1 (racemic) [Example 1.256] | 222 nM |
| CC(C)(C)NC(=O)C1CCN(Cc2cccc(NC(=O)C3CC3(C)C)c2)CC1 (racemic) [Example 1.257] | 7 nM |
| CC(C)(C)NC(=O)C1CCN(Cc2cccc(NC(=O)C3CNc4ccccc43)c2)CC1 (racemic) [Example 1.265] | 15 nM |
| CC(C)(C)NC(=O)C1CCN(Cc2cccc(NC(=O)C3COc4ccccc43)c2)CC1 (racemic) [Example 1.266] | 6 nM |
| CC(C)(C)NC(=O)C1CCN(Cc2cccc(NC(=O)C3CCc4ccccc43)c2)CC1 (racemic) [Example 1.267] | 2 nM |
| CC(C)(C)NC(=O)C1CCN(Cc2cccc(NC(=O)C(O)c3ccccc3Cl)c2)CC1 (racemic) [Example 1.270] | 6 nM |
| CC(C)(C)NC(=O)C1CCN(Cc2cccc(NC(=O)C3Cc4ccccc43)c2)CC1 (racemic) [Example 1.271] | 1 nM |
| CCNC(=O)C1CCCN(Cc2cccc(NC(=O)c3cncc(C)c3)c2)CC1 (racemic) [Example 1.287] | 181 nM |
| CCC(C)NC(=O)C1CCCN(Cc2cccc(NC(=O)c3cncc(C)c3)c2)CC1 (racemic) [Example 1.288] | 33 nM |
| Cc1cncc(C(=O)Nc2cccc(CN3CCCC(C(=O)NC(C)C)CC3)c2)c1 (racemic) [Example 1.289] | 113 nM |
| Cc1cncc(C(=O)Nc2cccc(CN3CCCC(C(=O)NC(C)(C)C)CC3)c2)c1 (racemic) [Example 1.290] | 49 nM |
| Cc1cncc(C(=O)Nc2cccc(CN3CCCC(C(=O)NC4CCCCC4)CC3)c2)c1 (racemic) [Example 1.291] | 134 nM |
| CCC(c1cccc(NC(=O)c2cncc(C)c2)c1)N1CCC(C(=O)NC2CCCCC2)CC1 (racemic) [Example 1.307] | 350 nM |
